Experiments:
[1] = target: T1, human recombinant bradykinin B1 receptor (Homo sapiens, UniProt P46663); assay: Human recombinant bradykinin B1 receptor competitive radioligand binding; conditions: hB1 expressed in CHO cells, [3H]-[Des-Arg10] Kallidin radioligand; read-out: B1 binding
T1 construct: host or cells: CHO cells, clone hB1-A5
T1 sequence (P46663 1-353): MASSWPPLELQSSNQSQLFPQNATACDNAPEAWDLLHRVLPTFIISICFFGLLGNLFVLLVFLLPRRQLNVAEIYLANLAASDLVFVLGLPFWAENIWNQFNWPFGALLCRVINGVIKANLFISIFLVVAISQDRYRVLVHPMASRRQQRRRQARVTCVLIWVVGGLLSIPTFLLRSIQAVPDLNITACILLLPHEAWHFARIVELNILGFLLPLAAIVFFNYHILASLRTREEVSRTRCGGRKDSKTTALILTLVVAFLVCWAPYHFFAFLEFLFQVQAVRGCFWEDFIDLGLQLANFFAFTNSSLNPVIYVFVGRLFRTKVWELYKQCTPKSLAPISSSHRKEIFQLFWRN
Outline: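 Membranes from CHO cells expressing hB1 (20 μg protein/tube) incubated 15 min at 25° C. with [3,4-prolyl-3,4-^3H(N)]-[Des-Arg^10] Kallidin; nonspecific binding defined with 10 μM Lys-des-Arg^9-Bradykinin. Bound label collected by filtration and counted. IC50 from ≥7-point curves in triplicate; Ki by Cheng-Prusoff.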

[2] = target: T2, recombinant human B1 receptors (Homo sapiens, UniProt P46663); assay: Functional assay: antagonist potency by cytosolic calcium measurement (plate reader fluorimeter) in CHO-B1 cells, agonist LysDABK; type: cell-based; conditions: CHO-B1 cells, inhibition of LysDABK (EC80)-evoked [Ca2+]i elevation; read-out: B1 func.
T2 construct: host or cells: CHO (CHO-B1)
T2 sequence (P46663 1-353): T1 sequence (P46663 1-353)
Outline: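 IC50 is the concentration giving half-maximal inhibition of the LysDABK (EC80) calcium response, fitted from at least three experiments. CHO cells stably expressing human B1 were dye-loaded, exposed to compound for 20-25 min, then read by fluo-4 fluorescence (ΔF/F) at 37 °C.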

Row | SMILES | Ki [1] | IC50 [2]
1 | Cc1nc(-c2c(Cl)c3ccccc3n2-c2ccc(CNC(=O)C3(NC(=O)C4CNC(=O)N4)CC3)cc2)no1 (centres unmarked) [Example 122, 2-Oxo-imidazolidine-4-carboxylic acid (1-{4-[3-chloro-2-(5-methyl-[1,2,4]oxadiazol-3-yl)-indol-1-yl]-benzylcarbamoyl}-cyclopropyl)-amide] | 20 to 100 nM | 20 to 100 nM
2 | CCc1cc(C(=O)NC2(C(=O)NCc3ccc(-n4c(-c5noc(C)n5)c(Cl)c5ccccc54)cc3)CC2)on1 [Example 123, 3-Ethyl-isoxazole-5-carboxylic acid (1-{4-[3-chloro-2-(5-methyl-[1,2,4]oxadiazol-3-yl)-indol-1-yl]-benzylcarbamoyl}-cyclopropyl)-amide] | < 20 nM | < 20 nM
3 | COc1ccc2c(c1)cc(-c1nnc(C)o1)n2-c1ccc(CNC(=O)C2(NC(=O)CC(F)(F)F)CC2)cc1 [Example 124, 1-(3,3,3-Trifluoro-propionylamino)-cyclopropanecarboxylic acid 4-[5-methoxy-2-(5-methyl-[1,3,4]oxadiazol-2-yl)-indol-1-yl]-benzylamide] | 20 to 100 nM | 20 to 100 nM
4 | COc1ccc2c(c1)cc(-c1nnc(C)o1)n2-c1ccc(CNC(=O)C2(NC(=O)c3cncc(C(F)(F)F)c3)CC2)cc1 [Example 125, N-(1-{4-[5-Methoxy-2-(5-methyl-[1,3,4]oxadiazol-2-yl)-indol-1-yl]-benzylcarbamoyl}-cyclopropyl)-5-trifluoromethyl-nicotinamide] | < 20 nM | < 20 nM
5 | COc1ccc2c(c1)cc(-c1nnc(C)o1)n2-c1ccc(CNC(=O)C2(NC(=O)c3cc(OC)no3)CC2)cc1 [Example 126, 3-Methoxy-isoxazole-5-carboxylic acid (1-{4-[5-methoxy-2-(5-methyl-[1,3,4]oxadiazol-2-yl)-indol-1-yl]-benzylcarbamoyl}-cyclopropyl)-amide] | < 20 nM | 20 to 100 nM
6 | Cc1nc(-c2cc3cc(Cl)ccc3n2-c2ccc(CNC(=O)C3(NC(=O)CC(F)(F)F)CC3)cc2)no1 [Example 127, 1-(3,3,3-Trifluoro-propionylamino)-cyclopropanecarboxylic acid 4-[5-chloro-2-(5-methyl-[1,2,4]oxadiazol-3-yl)-indol-1-yl]-benzylamide] | < 20 nM | < 20 nM
7 | Cc1nc(-c2cc3cc(Cl)ccc3n2-c2ccc(CNC(=O)C3(NC(=O)c4cncc(C(F)(F)F)c4)CC3)cc2)no1 [Example 128, N-(1-{4-[5-Chloro-2-(5-methyl-[1,2,4]oxadiazol-3-yl)-indol-1-yl]-benzylcarbamoyl}-cyclopropyl)-5-trifluoromethyl-nicotinamide] | < 20 nM | < 20 nM
8 | COc1ccc2c(c1)c(Cl)c(-c1noc(C)n1)n2-c1ccc(CNC(=O)C2(NC(=O)c3cnc(C)cn3)CC2)cc1 [Example 129, 5-Methyl-pyrazine-2-carboxylic acid (1-{4-[3-chloro-5-methoxy-2-(5-methyl-[1,2,4]oxadiazol-3-yl)-indol-1-yl]-benzylcarbamoyl}-cyclopropyl)-amide] | < 20 nM | < 20 nM
9 | COc1ccc2c(c1)c(Cl)c(-c1noc(C)n1)n2-c1ccc(CNC(=O)C2(NC(=O)c3cncc(C(F)(F)F)c3)CC2)cc1 [Example 130, N-(1-{4-[3-Chloro-5-methoxy-2-(5-methyl-[1,2,4]oxadiazol-3-yl)-indol-1-yl]-benzylcarbamoyl}-cyclopropyl)-5-trifluoromethyl-nicotinamide] | < 20 nM | < 20 nM
10 | Cc1cnc(C(=O)NC2(C(=O)NCc3ccc(-n4c(-c5noc(C)n5)cc5cc(F)ccc54)cc3F)CC2)cn1 [Example 131, 5-Methyl-pyrazine-2-carboxylic acid (1-{2-fluoro-4-[5-fluoro-2-(5-methyl-[1,2,4]oxadiazol-3-yl)-indol-1-yl]-benzylcarbamoyl}-cyclopropyl)-amide] | < 20 nM | 20 to 100 nM

From patent US20130217702A1 (Richter Gedeon Nyrt., priority 2010, published 2013)
